Experimental data taken from PubChem BioAssay (NCI).
Several values for one entry are separate records, joined by “and”; a condition that tells them apart may be missing. Equal entries are not always repeated.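 Values below derive from 48-hour exposures of cells grown in 96-well plates, with endpoints linearly interpolated between the two concentrations bracketing the appropriate inhibition level. GI50 marks 50% less growth. TGI: concentration producing complete growth inhibition.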

Experiments:
Assay in all cases: growth of human tumour cells (NCI), 48 h
[1] = tested on: CCRF-CEM leukemia
[2] = tested on: DU-145 prostate
[3] = tested on: HCT-15 colon
[4] = tested on: HS 578T breast
[5] = tested on: KM12 colon
[6] = tested on: MDA-MB-231 breast
[7] = tested on: NCI-H226 lung
[8] = tested on: OVCAR-5 ovarian
[9] = tested on: SK-MEL-28 melanoma
[10] = tested on: UACC-257 melanoma

Compound	GI50 [1]	TGI [1] [µM]	GI50 [2]	TGI [2] [µM]	GI50 [3]	TGI [3] [µM]	GI50 [4]	TGI [4] [µM]	GI50 [5]	TGI [5] [µM]	GI50 [6]	TGI [6]	GI50 [7]	TGI [7]	GI50 [8]	TGI [8] [µM]	GI50 [9]	TGI [9]	GI50 [10]	TGI [10]
N#Cc1ccc(C2C3=C(CCCC3=O)OC3=C2C(=O)c2ccccc2C3=O)cc1 (stereo not given)	0.951 µM	> 100	1.67 µM	3.07	1.6 µM	3.71	3.21 µM	9.37	3.14 µM	12.9	0.447 µM	1.83 µM	2.02 µM	4.62 µM	2.09 µM	4.23	1.82 µM	3.3 µM	1.55 µM	2.94 µM
Oc1ccc2ccccc2c1C1NN=C(c2ccccc2)S1 (stereo not given)	0.359 µM	> 100	0.479 µM	37.2	0.399 µM	> 50.8	2.41 µM	44.4	0.409 µM	32.9	0.621 µM	35.7 µM	0.647 µM	14.2 µM	1.95 µM	> 77.5	0.799 µM	97.8 µM	0.561 µM	12 µM
O=CC(Br)C(Br)c1ccccc1 (stereo not given)	0.374 µM	1.94	2.26 µM	5.74	0.913 µM	2.93	8.81 µM	43.9	12.6 µM	26	2.01 µM	4.22 µM	6.8 µM	18.7 µM	4.5 µM	13.2	2.31 µM	6.35 µM	1.9 µM	4.56 µM
CCN(CC)CCCC(C)Nc1c2ccc(Cl)cc2nc2cc(OC)c(OC)cc12 (stereo not given)	1.52 µM	10.3	2.02 µM	11.2	1.2 µM	3.49	2.75 µM	10.1	2.54 µM	10.6	1.52 µM	3.97 µM	1.47 µM	5.39 µM	2.18 µM	8.53	1.72 µM	3.37 µM	2.23 µM	4.1 µM
CN1CCC(C(=O)Nc2n[nH]c3nc(-c4ccc(O)cc4)c(Br)cc23)CC1	0.835 µM and 0.996 µM	> 25	1.69 µM and 1.18 µM	> 25	6.77 µM and 9.83 µM	> 25	1.15 µM and 0.208 µM	> 15.1	1.82 µM and 1.49 µM	> 25	1.4 µM and 3.97 µM	11.3 µM and 16 µM	0.674 µM and 1.06 µM	8.55 µM and > 15.5 µM	7.83 µM and 10.4 µM	> 25	1.21 µM and 2.46 µM	6.15 µM and 7.56 µM	4.3 µM and 6.17 µM	12.3 µM and 14.6 µM
O=C(NCCCCCCNC(=O)n1cc(F)c(=O)[nH]c1=O)NCCCOCCOCCOCCOCCOCCOCCOCCOCCOCCOCCOCCOCCOCCOCCOCCOCCOCCOCCOCCOCCOCCCNC(=O)C(O)C(O)C(OC1OC(CO)C(O)C(O)C1O)C(O)CO (stereo not given)	–	> 100	–	> 100	–	> 100	–	> 100	–	> 100	–	> 100 µM	–	> 100 µM	–	> 100	–	> 100 µM	–	> 100 µM
CC(=O)OC1CC[C@@]2(C)C(CC[C@]3(C)C2CC=C2[C@@H]4CC(C)(C)CCC4(C)CCC23C)[C@@]1(C)C(=O)O (stereo not given in full)	–	> 87.9	–	46	–	28.5	–	45.3	–	52.3	–	44.2 µM	–	50.2 µM	–	47.5	–	46.5 µM	–	43.3 µM
CC(=O)OCc1ccc(O)c(C=O)c1	–	> 100	–	> 100	–	> 100	–	> 100	–	> 100	–	> 100 µM	–	> 100 µM	–	> 100	–	> 100 µM	–	> 100 µM
Cc1ccc(C(=O)N2CCN(C(=O)c3ccc(C)cc3)c3ccccc32)cc1	–	> 100	–	> 100	–	> 100	–	29.8	–	> 100	–	> 100 µM	–	> 79.8 µM	–	> 100	–	> 100 µM	–	> 100 µM
Clc1cccc(N2CCN(CCN3CCc4c([nH]c5ccccc45)C3c3cccnc3)CC2)c1 (stereo not given)	–	> 100	–	> 31.6	–	> 100	–	> 100	–	> 100	–	> 100 µM	–	> 62.4 µM	–	> 92.1	–	> 100 µM	–	> 100 µM
CCCOC(=O)N[C@H]1CCc2cc(OC)c(OC)c(OC)c2-c2ccc(SC)c(=O)cc21	< 0.01 µM	19.7	< 0.01 µM	> 100	< 0.01 µM	12	< 0.01 µM	> 100	< 0.01 µM	> 38.6	< 0.01 µM	25.5 µM	< 0.01 µM	10.6 µM	< 0.01 µM	> 100	10.1 µM	> 68.1 µM	12.1 µM	> 56.3 µM
Fc1cccc(CSc2ncnc3c2ncn3C2CCCS2)c1 (stereo not given)	–	46.6	–	50.4	–	> 100	–	> 100	–	38.9	–	> 100 µM	–	61.4 µM	–	> 100	–	50.8 µM	–	29.6 µM
CC1(C)N=C(N)N=C(N)N1c1ccc(CCc2ccc(Cl)cc2S(=O)(=O)F)c(Cl)c1	6.73 µM	44.4	5.91 µM	> 100	92.8 µM	> 100	11.1 µM	41.3	4.63 µM	17.6	10.3 µM	67.5 µM	17.9 µM	44.3 µM	4.76 µM	> 100	7.99 µM	23.4 µM	9.6 µM	27.5 µM
CCOc1ccc2nc(-c3cccc(OCC(=O)NC(C)C)c3)nc(Nc3ccc(-c4cn[nH]c4)cc3)c2c1	0.315 µM	> 51.6	0.403 µM	2.91	0.834 µM	3.69	0.132 µM	1.72	0.527 µM	6.9	1.68 µM	10.7 µM	0.783 µM	3.19 µM	3.3 µM	21.9	1.13 µM	3 µM	1.79 µM	4.12 µM
CC(=O)C1COC(O)C1C (stereo not given)	–	> 100	–	70.8	–	44.4	–	68.8	–	28	–	68 µM	–	43.4 µM	–	59.2	–	38.6 µM	–	> 100 µM
